Results from ChEMBL document CHEMBL1130505, “2-Aryloxycarbonylthiophene-3-sulfonamides: Highly potent and etA selective endothelin receptor antagonists” (Bioorg Med Chem Lett, 1997).

What was measured:
[1] = target: T1, Endothelin receptor type B (Homo sapiens, UniProt P24530); experiment: In vitro binding affinity in a radioligand binding experiment by competition with [125I]-labeled endothelin-1 for ETB receptor
T1 sequence (P24530 whole entry): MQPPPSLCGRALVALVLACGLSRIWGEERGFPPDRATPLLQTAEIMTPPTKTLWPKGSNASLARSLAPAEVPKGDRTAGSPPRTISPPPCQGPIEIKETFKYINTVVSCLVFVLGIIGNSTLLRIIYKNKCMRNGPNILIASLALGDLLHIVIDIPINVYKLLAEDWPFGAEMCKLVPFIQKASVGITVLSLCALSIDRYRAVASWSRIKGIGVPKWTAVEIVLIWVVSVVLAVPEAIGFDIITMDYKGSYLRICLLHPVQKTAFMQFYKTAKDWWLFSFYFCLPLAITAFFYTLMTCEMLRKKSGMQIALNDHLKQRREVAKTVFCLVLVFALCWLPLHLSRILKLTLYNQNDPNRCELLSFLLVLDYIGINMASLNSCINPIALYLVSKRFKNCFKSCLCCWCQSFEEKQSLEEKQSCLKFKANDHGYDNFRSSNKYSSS

[2] = target: T2, Endothelin receptor type B (Homo sapiens) (UniProt P24530); experiment: Percent inhibition against ETB receptor binding at a concentration of 100 uM
T2 sequence (whole entry): T1 sequence (P24530 whole entry)

Endothelin-1 receptor = target: T3, Endothelin-1 receptor (Homo sapiens, UniProt P25101); experiment: In vitro binding affinity in a radioligand binding experiment by competition with [125I]-labeled endothelin-1 for ETA receptor
T3 sequence (P25101 whole entry): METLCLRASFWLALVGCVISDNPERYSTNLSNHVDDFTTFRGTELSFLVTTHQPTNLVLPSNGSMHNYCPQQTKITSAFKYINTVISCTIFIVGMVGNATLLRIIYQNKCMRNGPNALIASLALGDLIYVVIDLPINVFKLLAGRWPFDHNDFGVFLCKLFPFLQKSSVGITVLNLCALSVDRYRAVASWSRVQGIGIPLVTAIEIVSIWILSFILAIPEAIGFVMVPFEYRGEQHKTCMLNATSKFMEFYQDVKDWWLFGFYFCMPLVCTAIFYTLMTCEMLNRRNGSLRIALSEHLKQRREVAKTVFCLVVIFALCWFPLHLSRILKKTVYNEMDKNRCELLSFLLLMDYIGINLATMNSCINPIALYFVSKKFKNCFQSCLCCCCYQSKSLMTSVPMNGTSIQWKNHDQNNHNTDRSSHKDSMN

## Cc1ccc(OC(=O)c2sccc2S(=O)(=O)Nc2onc(C)c2C)c(C)c1
[1]
  IC50: > 100 µM
[2]
  inhibition: < 50%
Endothelin-1 receptor
  IC50: 0.27 µM

## Cc1cccc(OC(=O)c2sccc2S(=O)(=O)Nc2onc(C)c2Br)c1
[1]
  IC50: > 100 µM
[2]
  inhibition: < 50%

## Cc1noc(NS(=O)(=O)c2ccsc2C(=O)Oc2ccccc2)c1Cl
[1]
  IC50: > 100 µM
[2]
  inhibition: < 50%

## Cc1noc(NS(=O)(=O)c2ccsc2C(=O)Oc2ccccc2)c1Br
[1]
  IC50: > 100 µM
[2]
  inhibition: < 50%

## Cc1noc(NS(=O)(=O)c2ccsc2C(=O)Nc2ccccc2)c1C
[1]
  IC50: > 100 µM
[2]
  inhibition: < 50%
Endothelin-1 receptor
  IC50: 0.55 µM

## Cc1noc(NS(=O)(=O)c2ccsc2C(=O)O)c1Cl
[1]
  IC50: > 100 µM
[2]
  inhibition: < 50%
Endothelin-1 receptor
  IC50: 1.06 µM

## Cc1noc(NS(=O)(=O)c2ccsc2C(=O)O)c1Br
[1]
  IC50: > 100 µM
[2]
  inhibition: < 50%
Endothelin-1 receptor
  IC50: 10.2 µM

## Cc1ccc(OC(=O)c2sccc2S(=O)(=O)Nc2onc(C)c2Cl)cc1
[1]
  IC50: > 100 µM
[2]
  inhibition: < 50%

## COC(=O)c1sccc1S(=O)(=O)Nc1onc(C)c1Cl
[1]
  IC50: > 100 µM
[2]
  inhibition: < 50%
Endothelin-1 receptor
  IC50: 1.09 µM

## Cc1ccccc1OC(=O)c1sccc1S(=O)(=O)Nc1onc(C)c1Br
[1]
  IC50: > 100 µM
[2]
  inhibition: < 50%

## Cc1noc(NS(=O)(=O)c2ccsc2C(=O)Nc2ccccc2)c1Cl
[1]
  IC50: > 100 µM
[2]
  inhibition: < 50%
Endothelin-1 receptor
  IC50: 0.148 µM

## COC(=O)c1sccc1S(=O)(=O)Nc1onc(C)c1C
[1]
  IC50: > 100 µM
[2]
  inhibition: < 50%
Endothelin-1 receptor
  IC50: 3.47 µM

## Cc1noc(NS(=O)(=O)c2ccsc2C(=O)Oc2ccccc2)c1C
[1]
  IC50: > 100 µM
[2]
  inhibition: < 50%
Endothelin-1 receptor
  IC50: 4.12 µM

## Cc1noc(NS(=O)(=O)c2ccsc2C(=O)Oc2ccc3c(c2)OCO3)c1Br
[1]
  IC50: 5.74 µM
Endothelin-1 receptor
  IC50: 0.0089 µM

## Cc1ccc(OC(=O)c2sccc2S(=O)(=O)Nc2onc(C)c2Br)cc1
[1]
  IC50: 9.21 µM
Endothelin-1 receptor
  IC50: 0.0093 µM

## COC(=O)c1sccc1S(=O)(=O)Nc1onc(C)c1Br
[1]
  IC50: > 100 µM
[2]
  inhibition: < 50%
Endothelin-1 receptor
  IC50: 0.74 µM

## Cc1noc(NS(=O)(=O)c2ccsc2C(=O)Oc2ccc3c(c2)OCO3)c1C
[1]
  IC50: 48.7 µM
Endothelin-1 receptor
  IC50: 6.14 µM

## Cc1noc(NS(=O)(=O)c2ccsc2C(=O)Oc2ccc3c(c2)OCO3)c1Cl
[1]
  IC50: 7.94 µM
Endothelin-1 receptor
  IC50: 0.0083 µM

## Cc1noc(NS(=O)(=O)c2ccsc2C(=O)O)c1C
[1]
  IC50: > 100 µM
[2]
  inhibition: < 50%
Endothelin-1 receptor
  IC50: 6.06 µM

## Cc1ccc(OC(=O)c2sccc2S(=O)(=O)Nc2onc(C)c2C)cc1
[1]
  IC50: > 100 µM
[2]
  inhibition: < 50%
Endothelin-1 receptor
  IC50: 2.52 µM
